Reference: patent EP3521435A1, “A HIGH STRINGENCY SELECTION SYSTEM FOR PROTEIN EXPRESSION IN PROLINE-AUXOTROPHIC CELLS” (Bayer AG, priority 2018, dated 2019)

Assays:
[1] = tested on: CHO-K1 cells; assay: Cell viability post-transfection of transfected cell populations under selection conditions; type: cell-based, Chinese hamster
Description: (§1) To efficiently test the impact of different procedures on improving selection stringency, experimental testing in stable cell populations was performed. As test molecules, enhanced green fluorescent protein (GFP) as well as a human IgG1 were chosen. CHO-K1 cells adapted to growth in suspension in defined medium were obtained from SAFC and cultivated in EX-CELL CD CHO Fusion medium (SAFC 14365C). Custom-made EX-CELL CD CHO Fusion medium without L-Proline (Pro) and without L-Ornithine (Orn) ("proline-free medium") was obtained from SAFC. The expression vector system was based on modified versions of "CET 1019 AS-puro-SceI" and "CET 1019 AD-puro-SceI" for GFP and human IgG1, respectively, from Merck-Millipore, containing the Puromycin selection marker (Puromycin N-acetyl-transferase) known to exert a high selection stringency. To minimize variations in cell populations derived from using different transfections or different vectors, the first series of experiments were conducted using vectors into which a P5CS expression cassette was cloned upstream of a UCOE element, in addition to the Puromycin selection marker present downstream of a gene of interest. This way, it was possible to pool different transfections using the same vector to obtain a common starting point, and split the mixture according to different selection conditions, minimizing any variations that are not due to selection conditions themselves. Expression of long and short isoform of murine P5CS (Protein: Delta-1-pyrroline-5-carboxylate synthase; Gene: Aldh18a1; UniProtKB accession number: Q9Z110-1 & Q9Z110-2) was driven by a SV40 promoter. A SV40 polyadenylation sequence was used at the 3' end of the gene. More details can be found in Table 1. Typically, CHO cells were cultivated in EX-CELL CD CHO Fusion medium containing 6 mM GlutaMAX (Thermo Fisher, 35050-38) ("CD-Fusion medium") at 37 °C with 5% CO2. Cells were grown to logarithmic phase under shaking conditions for transfections. 1e7 cells/cuvette were transfected using nucleofection (Amaxa Nucleofector II, following the manufacturer's recommendations) with 5 µg of linearized DNA. After transfection, cells were taken up in 1 ml medium and transferred into 1 well of a 6 well microtiter plate (MTP) already containing 1 ml medium. The cells were incubated for 24 h without shaking, after which 9 ml medium were added and cells were washed (either in standard or proline-free medium). Multiple transfections were pooled, if applicable. Cells were adjusted to 2e5 viable cells/ml and 10 ml were transferred to T-25 flasks. Reference cell populations were selected using 10 µg/ml Puromycin in CD-Fusion medium. For P5CS-based selection, EX-CELL CD CHO Fusion medium (custom-made, SAFC) containing 6 mM GlutaMAX without proline and without ornithine was used ("proline-free" or "CD-Fusion w/o Pro" medium), with or without additional selection pressure.
(§2) Cell viability of the different populations was monitored over time. As soon as cell populations appeared to recover from selection pressure, cells were transferred to Shake Flask or TubeSpins for expansion in suspension under shaking conditions. Subsequently, stable cell populations transfected with IgG were seeded at 2e5 viable cells/ml for batch fermentation without selection pressure (i.e. standard CD-Fusion medium containing proline and no other selective agents). The cells were cultivated for 5-10 days, viable cell densities and productivity were monitored over time. IgG titers were determined using Poros A-HPLC method. Typically, final batch titers were recorded at a time point at which majority of cultures had around 70% viability. Stable cell populations transfected with GFP vector were subjected to analysis by flow cytometry using Guava easyCyte 8HT Benchtop Flow Cytometer (Millipore). 250 µl of cell culture were transferred to 96 MTP and washed with PBS. Dead cells were excluded from analysis using propidium iodide (PI). […]

[2] = tested on: CHO-K1 cells; assay: Batch fermentation in shake flasks of human IgG1 expressing stable cell populations (Poros A-HPLC titer, viable cell density, viability); type: cell-based, Chinese hamster; settings: human IgG1, pJF1576, non-selecting conditions
Description: as §1, §2

[3] = MOCK, CD-Fusion w/o Pro + 5 mM Orn

What does the source list for `NCCC[C@H](N)C(=O)O` [Orn, L-Ornithine]?
Viability on day 12 post-transfection [1, 3]: 45%; Viability on day 14 post-transfection [1, 3]: 43%; Viability on day 14 post-transfection ([1]; pJF1555, CD-Fusion w/o Pro + 0.2 mM Orn): 83%; Viability on day 14 post-transfection ([1]; pJF1555, CD-Fusion w/o Pro + 0.2 mM Orn + 10 µg/ml Puromycin): 73%; Viability on day 12 post-transfection ([1]; pJF1555, CD-Fusion w/o Pro + 0.25 mM Ornithine): 88%; Viability on day 12 post-transfection ([1]; pJF1555, CD-Fusion w/o Pro + 0.5 mM Ornithine): 87%; Viability on day 14 post-transfection ([1]; pJF1555, CD-Fusion w/o Pro + 1 mM Orn): 87%; Viability on day 14 post-transfection ([1]; pJF1555, CD-Fusion w/o Pro + 1 mM Orn + 10 µg/ml Puromycin): 75%; Viability on day 12 post-transfection ([1]; pJF1555, CD-Fusion w/o Pro + 1 mM Ornithine): 91%; Viability on day 12 post-transfection ([1]; pJF1555, CD-Fusion w/o Pro + 2 mM Ornithine): 49%; Viability on day 12 post-transfection ([1]; pJF1555, CD-Fusion w/o Pro + 3 mM Ornithine): 36%; Viability on day 12 post-transfection ([1]; pJF1555, CD-Fusion w/o Pro + 4 mM Ornithine): 55%; Viability on day 14 post-transfection ([1]; pJF1555, CD-Fusion w/o Pro + 5 mM Orn): 51%; Viability on day 14 post-transfection ([1]; pJF1555, CD-Fusion w/o Pro + 5 mM Orn + 10 µg/ml Puromycin): 13%; Viability on day 12 post-transfection ([1]; pJF1555, CD-Fusion w/o Pro + 5 mM Ornithine): 53%; concentration at which recovery kinetics were affected ([1]; pJF1555, proline-free medium, Table 8): ≥ 2 mM; Batch titer day 7 ([2]; selected in CD-Fusion w/o Pro + 0.2 mM Orn + 10 µg/ml Puromycin): 173 mg/L; Batch titer day 7 ([2]; selected in CD-Fusion w/o Pro + 0.2 mM Orn): 120 mg/L; Batch titer day 7 ([2]; selected in CD-Fusion w/o Pro + 1 mM Orn + 10 µg/ml Puromycin): 159 mg/L; Batch titer day 7 ([2]; selected in CD-Fusion w/o Pro + 1 mM Orn): 135 mg/L; Batch titer day 7 ([2]; selected in CD-Fusion w/o Pro + 5 mM Orn + 10 µg/ml Puromycin): 38 mg/L; Batch titer day 7 ([2]; selected in CD-Fusion w/o Pro + 5 mM Orn): 9 mg/L
